pIC50: −log10 of the molar value. Read-outs that look alike come from different tables or passages of the source.
Experiments:
[1] = system: Pancreatic islets of Langerhans; assay: Glucose-stimulated insulin secretion (GSIS) by isolated pancreatic islets, insulin ELISA; format: cell-based, rat; details: concentration of 1 μM
Procedure: Pancreatic islets of Langerhans were isolated from adult male Sprague-Dawley rats using a standard collagenase infusion and digestion procedure as described in Example 16. Islets were cultured at 37° C. for 1-2 days in CMRL-1066 medium supplemented with 5.5 mM glucose, 10% fetal bovine serum, 100 U/ml penicillin and 100 μg/ml streptomycin, in a humidified atmosphere containing 5% CO2. Islets were manually picked and washed in Krebs Ringer Bicarbonate buffer (KRB: 134 mM NaCl, 4.7 mM KCl, 1.2 mM KH2PO4, 1.2 mM MgSO4, 1 mM CaCl2, 10 mM NaHCO3, pH 7.4) in preparation for measurement of glucose-stimulated insulin secretion (GSIS). […] Cell-conditioned media samples were then collected by centrifugation and their insulin content was determined using enzyme-linked immunosorbent assay (ELISA) kits (CrystalChem or ALPCO rat insulin ELISA) according to the kit supplier's instructions. Following treatment with a preferred compound, the concentration of insulin detected in the islet-conditioned medium was at least 1.5 times the insulin concentration detected in the medium conditioned by islets that were exposed to 8 mM glucose.
At a concentration of 1 μM, CGP37157 stimulated islet GSIS by 222 (±48) % relative to GSIS detected with 8 mM glucose. […]

[2] = system: INS-1 rat insulinoma cells; assay: Insulin secretion by INS-1 cells, insulin radioimmunoassay; format: cell-based; details: 8 mM glucose vs basal; FIG. 1
Procedure: INS-1 rat insulinoma cells were provided by Prof. Claes Wollheim, University Medical Centre, Geneva, Switzerland, and cultured at 37° C. in a humidified 5% CO2 environment in RPMI cell culture media (Gibco BRL, Gaithersburg, Md.) supplemented with 10% fetal bovine serum (Irvine Scientific, Irvine, Calif.), 2 mM L-glutamine, 100 U/ml penicillin, 100 μg/ml streptomycin, 10 mM HEPES, 1 mM sodium pyruvate and 50 μM β-mercaptoethanol (all reagents Sigma, St. Louis, Mo., unless otherwise noted).
INS-1 cells were seeded into 24-well plates containing RPMI media supplemented as described at 0.5×10^6 cells/well and cultured at 37° C., 5% CO2 for 2 days. Cells at or near confluence (0.7×10^6 cells/well) were rinsed with glucose-free KRH buffer (134 mM NaCl, 4.7 mM KCl, 1.2 mM KH2PO4, 1.2 mM MgSO4, 1.0 mM CaCl2, 10 mM HEPES-pH 7.4, 25 mM NaHCO3, 0.5% BSA), then incubated in the same buffer for 1 hr at 37° C. in a humidified 5% CO2/95% air atmosphere. […] Insulin concentrations in the supernatants were measured and normalized to cell number using an insulin-specific radioimmunoassay kit (ICN Biochemicals, Irvine, Calif.) according to the manufacturer's instructions.

[3] = system: rat pancreatic islet cells; assay: Insulin secretion by rat pancreatic islet cells (FIG. 2); format: cell-based; details: basal (5 mM) or supraphysiological (8 mM) glucose
[4] = molecular target: T1, mitochondrial calcium/sodium antiporter (Rattus norvegicus, UniProt Q6AXS0); assay: Inhibition of mitochondrial calcium/sodium antiporter activity (NaCl-induced mitochondrial calcium efflux, calcium green 5N fluorescence); format: cell-based; details: digitonin-permeabilized INS-1 cells, 20 mM NaCl
T1 sequence (Q6AXS0 1-585): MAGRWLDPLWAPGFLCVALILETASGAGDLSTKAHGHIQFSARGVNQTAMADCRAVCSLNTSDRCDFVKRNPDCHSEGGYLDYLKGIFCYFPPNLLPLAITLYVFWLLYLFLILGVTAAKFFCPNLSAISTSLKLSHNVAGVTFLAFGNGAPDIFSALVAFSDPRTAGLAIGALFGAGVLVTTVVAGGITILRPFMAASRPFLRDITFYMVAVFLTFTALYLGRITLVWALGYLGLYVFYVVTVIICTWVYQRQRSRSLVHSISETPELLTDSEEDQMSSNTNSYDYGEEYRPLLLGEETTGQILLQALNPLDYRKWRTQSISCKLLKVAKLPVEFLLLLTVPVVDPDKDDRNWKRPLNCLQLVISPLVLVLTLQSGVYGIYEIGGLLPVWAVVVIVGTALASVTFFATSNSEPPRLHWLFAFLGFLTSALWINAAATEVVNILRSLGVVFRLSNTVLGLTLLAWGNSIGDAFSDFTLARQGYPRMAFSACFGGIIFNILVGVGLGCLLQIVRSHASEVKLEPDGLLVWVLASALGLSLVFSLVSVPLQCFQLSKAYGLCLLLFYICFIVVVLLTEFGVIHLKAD
Procedure: INS-1 rat insulinoma cells (see Example 16) were harvested by trypsinization, washed and resuspended at 10×10^6 cells/ml in assay buffer (250 mM sucrose, 10 mM HEPES, 2.5 mM K2HPO4, 5 mM succinate, pH 7.4) containing 0.007% digitonin, 60 μM CaCl2 and 0.05 μM calcium green 5N (Molecular Probes, Inc., Eugene, Oreg.). After a five-minute calcium loading incubation, ruthenium red (1 μM; Sigma, St. Louis, Mo.) was added to block further calcium uptake by mitochondria. Cell suspensions were dispensed into 96-well plates (100 μl per well, 1×10^6 cells per well) and candidate agents (i.e., candidate mitochondrial calcium/sodium antiporter inhibitors) were added to some sets of triplicate wells at concentrations of 1, 10 or 100 μM, while other sets of wells provided appropriate control conditions (e.g., buffer and vehicle controls). Baseline fluorescence measurements were made using a multiwell plate fluorimeter (F-MAX™, Molecular Devices Corp., Sunnyvale, Calif.; or PolarStar™, BMG Labtechnologies, Inc., Durham, N.C.) according to the manufacturer's instructions. Calcium efflux from mitochondria was then induced by adding NaCl to all wells to achieve a final concentration of 20 mM, and the rate of change in fluorescence in each well was monitored […] for two minutes and quantified using software included with the plate reader.

[5] = system: C57BLKs-db/db mice; assay: Glucose tolerance in mutant db/db mice after oral administration; format: in vivo, mouse; details: 100 mg/kg orally one hour before 1 gm glucose/kg i.p.; relative to vehicle control; p<0.05
Description: This Example illustrates the effects of a representative compound on glucose tolerance in an established animal model of type II diabetes mellitus, the db/db mutant mouse. As a brief background, the recessive db mutation has been localized to murine chromosome 4, and homozygous recessive (db/db) individuals are characterized by, inter alia, obesity, hyperphagia, transient increases in plasma insulin concentrations, hyperglycemia, abnormal immune and renal functions, diabetic neuropathy and myocardial disease (see, e.g., Hummel et al., 1966 Science 153:1127; Herberg et al., 1977 Metabolism 26:59; Leiter et al., 1981 Metabolism 30:554; Guenet et al., 1982 Mouse News Letter 67:30; Guenet et al., 1984 Mouse News Letter 70:95; Bray et al., 1971 Physiol. Rev. 51:598; Bailey et al., 1989 J. Endocrinol. 123:19-24; Bray et al., 1979 Physiol. Rev. 59:719; Sima et al., 1979 Lab. Invest. 40:627; Sima et al., 1978 Acta Nettropathol. […]
16o (dissolved in vehicle: 10% (v/v) EtOH, 10% (v/v) polyethylene glycol-400, 30% (v/v) propylene glycol, 50% (v/v) H2O) was administered orally at a dosage of 100 mg/kg body weight to eight-week old mutant C57BLKs-db/db mice (Harlan Bioproducts for Science, Inc., Indianapolis, Ind.). […] Glucose concentrations in each blood sample were determined using OneTouch® glucose test strips (LifeScan, Inc., Milpitas, Calif.) according to the manufacturer's instructions. […]

[6] = Table 3, more preferred compounds, read-out: IC50 ≦ 1 μM
[7] = Table 2, preferred compounds, read-out: IC50 ≦ 10 μM

SMILES | pIC50 [4, 6] | pIC50 [4, 7] | also measured
O=C1CSC(c2ccccc2Cl)c2cc(Cl)ccc2N1 (stereo not drawn) [CGP37157, 7-Chloro-5-(2-chlorophenyl)-1,5-dihydro-4,1-benzothiazepin-2(3H)-one] |  |  | stimulated islet GSIS relative to GSIS detected with 8 mM glucose [1]: 222 (±48) %; glucose stimulated insulin secretion by INS-1 cells [2]: enhanced glucose stimulated insulin secretion; glucose stimulated insulin secretion on rat pancreatic islet cells [3]: enhanced glucose stimulated insulin secretion
COc1cc(C(=O)NCCSC(c2cc(Cl)ccc2N)C2CCCCC2)cc(OC)c1OC (stereo not drawn) [Compound 16o] | ≥ 6.00 |  | peak blood glucose levels after the glucose bolus [5]: lower peak blood glucose levels; return of blood glucose to baseline [5]: returned to a lower baseline more rapidly
O=[N+]([O-])c1ccccc1C(CNCCc1ccccc1)c1cccc(Cl)c1 (stereo not drawn) [Compound 27b] |  |  | pIC50 ([4]; IC50 ≦ 1 μM, Table 3, more preferred compounds): ≥ 6.00; pIC50 ([4]; IC50 ≦ 10 μM, Table 2, preferred compounds): ≥ 5.00
COC(=O)CN(C)CC(c1cccc(Cl)c1)c1ccccc1[N+](=O)[O-] (stereo not drawn) [Compound 28a] |  | ≥ 5.00 | 
COC(=O)CSC(c1ccccc1C)c1ccccc1NC(=O)c1ccccc1 (stereo not drawn) [Compound 34c] |  | ≥ 5.00 | 
CNCCSCC(c1cc(Cl)ccc1N)c1ccccc1F (stereo not drawn) [Compound 35f] |  | ≥ 5.00 | 
Nc1ccc(Br)cc1C(CSCc1nc2ccccc2[nH]1)c1ccccc1F (stereo not drawn) [Compound 37a] |  | ≥ 5.00 | 
Cc1noc(C[S+]([O-])CC(c2cc(Cl)ccc2N)c2ccccc2Cl)n1 (stereo not drawn) [Compound 38a] |  | ≥ 5.00 | 
Nc1ccc(Cl)cc1C(c1ccccc1Cl)[S+]([O-])CC(=O)NCC(c1ccccc1)c1ccccc1 (stereo not drawn) [Compound 38c] | ≥ 6.00 | ≥ 5.00 | 
COc1ccc(S(=O)(=O)N2CCC(CSC(c3cc(Cl)ccc3N)C3CCCCC3)CC2)cc1OC (stereo not drawn) [Compound 40] | ≥ 6.00 |  | 
COc1cc(C(=O)N2CCC(CSC(c3cc(Cl)ccc3N)C3CCCCC3)CC2)cc(OC)c1OC (stereo not drawn) [Compound 41a] |  | ≥ 5.00 | 
COc1cc(C(=O)N2CCC(CSC(c3cc(F)ccc3N)C3CCCCC3)CC2)cc(OC)c1OC (stereo not drawn) [Compound 41b] | ≥ 6.00 |  | 

— patent US6958352B2, “Compounds for inhibiting insulin secretion and methods related thereto” (SmithKline Beecham Corporation, priority 2002, dated 2005)
